The source of these data is US20150174144A1, “TETRACYCLINE COMPOUNDS FOR TREATING NEURODEGENERATIVE DISORDERS” (PARATEK PHARMACEUTICALS, INC., priority 2012, published 2015).

For one data set, the system named is MS. The settings on record: cited from earlier work; for % lesion reduction: gadolinium-enhancing MRI lesions.
The nature of data set [1]: Alkylperoxy radical scavenging assay (AIPH, AE-Trolox oxidation). The settings on record: for IC50: 5 mM AIPH, 37° C., 8 minutes, read-out: IC50, inhibition of AE-Trolox oxidation (alkylperoxy radical scavenging); for Percent Trolox Activity / Trolox Equivalents: relative to Trolox. As for the experimental part:
In a separate assay, alkylperoxy radicals were generated in vitro using the radical generator AIPH (2,2′-azobis-[2-(2-imidazolyn-2-yl)-propane) and the ability of tetracyclines to scavenge these radicals was determined. […] Also, the ability of Compound 1 and minocycline to specifically scavenge peroxynitrite-carbonate radicals was determined.
In this study, alkylperoxy radicals were generated in vitro using the radical generator AIPH (2,2′-azobis-[2-(2-imidazolyn-2-yl)-propane) and the ability of tetracyclines, such as Compound 1, to scavenge these radicals was determined.
Trolox is a known scavenger of peroxyradicals. Structurally similar to a-tocopherol, Trolox reacts with peroxyradicals via a known mechanism with linear kinetics under excess oxygen conditions. In the presence of a competing antioxidant compound, the rate of Trolox oxidation will change based on the relative rate of oxidation and concentration of the competing antioxidant compound (Huang, et al., J. Agric. Food Chem. 2005, 25, 1841-1856). By measuring the effect of antioxidant concentration on the rate of degradation of Trolox, the relative antioxidant capacity of a compound can be determined. This principle is the basis of the widely used antioxidant capacity assay, ORAC (Huang, et al., J. Agric. Food Chem. 2002, 50, 1815-1821). Unlike ORAC which uses a fluorescent dye indicator, the assay described here directly measures the oxidation of the Trolox derivative, 2-aminoethyl-Trolox (AE-Trolox). This method eliminates interference of the fluorescent dye reaction by tetracycline compounds.
To the first column of a 96-well PCR plate (0.2 mL volume) was added 160 μL of TCWS. One well of the first column would equal one IC50 determination. […] To the remaining wells in columns 2-11 was added 80 μL of AET-WS. Using a multichannel pipettor, column 1 was serially diluted in 2-fold dilutions by removing 80 μL from column 1 and transferring with mixing to column 2. Column 2 was then diluted to column 3 and so on until column 11 where 80 μL of the diluted mixture was removed and discarded. Four wells of row 12 were designated as the 0 test compound/0 AIPH control to which 80 μL of AET-WS was added. One well of row 12 per test compound was designated as the 0 test compound control to which 80 μL of the AET-WS was added.
(§1) The plate was covered and incubated for 5 minutes at 37° C. upon which the reaction was initiated by addition of 20 μL of AIPH to columns 1-11 using a multichannel pipettor with mixing. The reaction was initiated similarly to the 0 test compound wells of column 12. To the 0 test compound/0 AIPH control wells was added 20 μL of PB buffer. The plate was incubated at 37° C. for 8 minutes (the reaction is linear for 10 minutes) and quenched by addition of 50 μL of AA to all wells with mixing. The plate was placed on ice for 5 minutes. Quenched assay mixtures were stable at room temperature for at least 24 hours.
Each reaction mixture was analyzed for AE-Trolox by 2D-LCMS on a Shimadzu 2010 equipped with a loading column (Shim-pack MAYI-ODS, 4.6×10 mm) and a gradient column Phenomenex Luna C18(2) column, 3 um, 4.6×50 mm. Using an automated 2-position swithching valve, samples were loaded onto the loading column by Pump C and washed for 1 minute with loading buffer. At 1 minute, the valve was switched to elution position (Position B, reversed flow through loading column) and the samples were eluted through the gradient column. The loading buffer (Buffer C) was 10% acetonitrile in water with 0.2% formic acid and the gradient buffers were water+0.2% formic acid (A buffer) and acetonitrile+0.2% formic acid (B buffer). Typical injection volumes were 30 μL.
From the TIC integration of AE-Trolox and AE-Trolox-d4, a ratio was calculated:
Ratio=AUCAE-Trolox/AUCAE-Trolox-d4
Percent inhibition of AE-Trolox oxidation (measured as disappearance of AE-Trolox) was then determined by:
% Inhibition=[1−((Ratio0−Ratiox)/(Ratioo−Ratiof))]*100

Data set [2] is described as follows: Peroxynitrite-carbonate radical scavenging assay (DHR probe). The following applies: for IC50: Sin-1, 37° C., 8 minutes, read-out: IC50, inhibition of oxidation of DHR probe (peroxynitrite-carbonate scavenging); for Uric Acid Equivalents: relative to uric acid. Here is the method: Inflammatory conditions are characterized by increasing concentrations of reactive oxygen species. In this study, the ability of Compound 1 to specifically scavenge peroxynitrite-carbonate radicals was determined.
To the first column of a 96-well PCR plate (0.2 mL volume) was added 160 μL of TCWS. One well of the first column would equal one IC50 determination. Typically, test compounds were assayed in duplicate, i.e. two wells of column 1 were filled with each TCWS. To the remaining wells in columns 2-11 was added 80 μL of DWS. Using a multichannel pipettor, column 1 was serially diluted in 2-fold dilutions by removing 80 μL from column 1 and transferring with mixing to column 2. Column 2 was then diluted to column 3 and so on until column 11 where 80 μL of the diluted mixture was removed and discarded. At least 2 wells of row 12 were designated as the 0 test compound control to which 80 μL of DWS was added. One well of row 12 per test compound was designated as the background control to which 80 μL of the TCWS was added.
as §1, with “Sin-1” for “AIPH”, “background” for “0 test compound/0 AIPH”, “PC” for “PB”
Each reaction mixture (20 μL) was analyzed for rhodamine 123 product by HPLC using a Phenomenex Luna C18(2) column, 3 um, 4.6×50 mm using an A buffer of water+0.1% TFA and a B buffer of acetonitrile+0.1% TFA and the following gradient method: […]
The absorbance at 280 nm was also recorded to ensure no co-elution of test compound peaks.
Initial examination of the background control samples at the highest test compound concentration were performed to ensure no co-elution of test compound peaks with the product rhodamine 123 at 4 minutes. If co-elution was observed, the compound was not tested until an appropriate HPLC method was developed to separate the product and test compound peaks. The rhodamine 123 AUC was then determined for each test compound concentration and the percent inhibition of rhodamine 123 fluorescence was then determined by the following equation:
% Inhibition=[(AUCo−AUCx)/AUCo]*100
Where AUCo is the AUC of the rhodamine 123 peak at 0 test compound concentration and AUCX is the AUC of the rhodamine 123 peak at each test compound concentration=x.
The standard error of the curve fit for the IC50 was also determined along with the Hill slope. The IC50 determined for uric acid was divided by the IC50 determined for each test compound to generate Uric Acid Equivalents, a measure of the peroxynitrite-carbonate radical scavenging ability relative to uric acid.
Uric Acid Equivalents=[…]

The next data set concerns E. coli. Kind of data set: Antibacterial activity, E. coli MIC. The format is cell-based. The settings on record: Escherichia coli; Table 8.
In data set [3] the test system is animal models of MS and neuroprotection. Kind of data set: Accepted animal models of MS and neuroprotection (Table 2). The settings on record: in vivo. Also on record: concentration or dose not given beside the values.

In brackets after ≈: the same amount, converted by molar mass. Where two headings read alike, the source gives them in different places.

`CCN(C(=O)c1c(O)c2c(Cl)cccc2n(C)c1=O)c1ccccc1` [Laquinimod]: in the data set with MS (MS clinical studies), the “% Relapses eduction” value was 21%, the potential side effects result was “Increase in liver enzymes” and the “% lesion reduction” value is on record as 40%.
A word on the IC50: it is the point on the concentration scale where inhibition reaches its midpoint. Turning to `Cc1c(C)c2c(c(C)c1O)CCC(C)(C(=O)O)O2` (centres unmarked) [Trolox], in data set [1], the IC50 was 9 µM, the “Percent Trolox Activity” value was 100% and the “Trolox Equivalents” value came to 1.00.
Consider `O=c1[nH]c(=O)c2[nH]c(=O)[nH]c2[nH]1` [Uric acid], for which, in data set [2], the IC50 is 12.4 µM and the “Uric Acid Equivalents” value amounted to 1.
On to `COC(=O)/C=C/C(=O)OC` [BG-12], for which, in the data set with MS (MS clinical studies), the “% Relapses eduction” value is 32%, the potential side effects result is recorded as “Flushing” and the “% lesion reduction” value is recorded as 69%.
What is called MIC is the smallest concentration in the dilution series that meets the test's criterion for growth inhibition. In the data set on E. coli, `C[C@H]1c2cccc(O)c2C(=O)C2=C(O)[C@]3(O)C(=O)C(C(N)=O)=C(O)[C@@H](N(C)C)[C@@H]3[C@@H](O)[C@@H]21` [Doxycycline, doxycycline] showed an MIC of 0.5 µg/mL (≈ 1.13 µM).
As for `CCCCCCCCc1ccc(CCC(N)(CO)CO)cc1` [Fingolimod, 2-amino-2-[2-(4-octylphenyl)ethyl]propane-1,3-diol], in the data set on MS (MS clinical studies), the “% Relapses eduction” value is 54%; the potential side effects result is given as “Infections, cancer, cardiac”; the “% lesion reduction” value is on record as 30%. In addition, in data set [3], the “% Inhibition Axon Loss” value is recorded as 60%, the “% Inhibition Clinical Score” value was 89%, the “% Inhibition Demyelination” value was 69% and the “% Inhibition Inflammation” value is on record as 59%.
Take Glatiramer [COPAXONE ®]: in the data set on MS (MS clinical studies), the “% Relapses eduction” value is recorded as 30% and the “% lesion reduction” value is given as 65%. Besides, in the data set with MS (human, in vivo), the potential side effects result is on record as “Infection, shaking hands,”. Moreover, in data set [3], the “% Inhibition Clinical Score” value worked out at 75% and the “% Inhibition Demyelination” value came to 74%.
Regarding `C/C(O)=C(\C#N)C(=O)Nc1ccc(C(F)(F)F)cc1` [Teriflunomid], in the data set on MS (MS clinical studies), the “% Relapses eduction” value is given as 30%; the potential side effects entry is “Mild infections, Fatigue,”; the “% lesion reduction” value was 44%.
As to `CN(C)[C@@H]1C(O)=C(C(N)=O)C(=O)[C@@]2(O)C(O)=C3C(=O)c4c(O)cccc4C[C@H]3C[C@@H]12` [Sancycline, sancycline], in data set [2], the 50% inhibitory concentration (IC50) amounted to 66.4 µM and the “Uric Acid Equivalents” value is recorded as 0.19. Moreover, in data set [1], the IC50 worked out at 369 µM, the “Percent Trolox Activity” value was found to be 2% and the “Trolox Equivalents” value is 0.02.
Turning to Natalizumab [TYSABRI ®], in the data set with MS (MS clinical studies), the “% Relapses eduction” value is recorded as 68%; the potential side effects entry is on record as “Liver damage, fatigue, fatal”; the “% lesion reduction” value is 83%.
